35 compounds from patent US20100273780A1, “SUBSTITUTED 8-HETEROARYL XANTHINES” (PGXHEALTH, LLC, priority 2003, published 2010) can be followed below.

The target in the assay is T1, rat A2B receptors (rA2B) (Rattus norvegicus, UniProt P29276).
T1 construct: expressed in transfected cells; host or cells: HEK-293 cells, stably transfected (G418 selection); membranes
T1 sequence (P29276 1-332): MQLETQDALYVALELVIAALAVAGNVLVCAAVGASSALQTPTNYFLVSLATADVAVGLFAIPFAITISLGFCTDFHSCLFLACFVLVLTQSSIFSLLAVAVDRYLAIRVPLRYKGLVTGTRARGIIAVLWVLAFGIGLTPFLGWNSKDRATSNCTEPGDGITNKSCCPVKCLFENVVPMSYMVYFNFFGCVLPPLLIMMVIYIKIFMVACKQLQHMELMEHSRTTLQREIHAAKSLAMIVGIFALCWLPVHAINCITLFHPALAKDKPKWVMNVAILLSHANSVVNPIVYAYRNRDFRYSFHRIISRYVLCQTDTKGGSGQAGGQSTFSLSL
Briefly: Radioligand competition binding (125I-ABOPX) at rat A2B receptors in HEK-293 membranes. Conditions: displacement of specific [125I]ABOPX binding at rat A2B receptors expressed in HEK-293 cells; read-out: RatA2B Ki. On the procedure:
The plasmid was amplified in competent JM109 cells and plasmid DNA isolated using Wizard Megaprep columns (Promega Corporation, Madison, Wis.).
Transfected HEK cells were grown under 5% CO2/[…] humidified atmosphere at a temperature of 37° C. Colonies were selected by growth of cells in 0.6 mg/mL G418. Transfected cells were maintained in DMEM supplemented with Hams F12 nutrient mixture (1/1), 10% newborn calf serum, 2 mM glutamine and containing 50 IU/mL penicillin, […], and 0.2 mg/mL Geneticin (G418, Boehringer Mannheim). Cells were cultured in 10 cm diameter round plates and subcultured when grown confluent (approximately after 72 hours).
At A2B receptors: Confluent monolayers of HEK-A2B cells were washed with PBS followed by ice cold Buffer A (10 mM HEPES, 10 mM EDTA, pH 7.4) with protease inhibitors (10 μg/mL benzamidine, 100 μM phenylmethanesulfonyl fluoride, and 2 μg/mL of each aprotinin, pepstatin and leupeptin). The cells were homogenized in a Polytron (Brinkmann) for 20 s, centrifuged at 30,000×g, and the pellets washed twice with buffer HE (10 mM HEPES, 1 mM EDTA, pH 7.4 with protease inhibitors). The final pellet was resuspended in buffer HE, supplemented with 10% sucrose and frozen in aliquots at −80° C. For binding assays membranes were thawed and diluted 5-10 fold with HE to a final protein concentration of approximately 1 mg/mL. To determine protein concentrations, membranes, and bovine serum albumin standards were dissolved in 0.2% NaOH/0.01% SDS and protein determined using fluorescamine fluorescence. Stowell, C.
After incubation, 20 minutes at room temperature, 50 μL, of 10 mg/mL Na-metabisulfite in water was added to quench the reaction. The reaction mixture was applied to a C18 HPLC column, eluting with a mixture of methanol and 5 mM phosphate, pH 6.0. After 5 min at 35% methanol, the methanol concentration was ramped to 100% over 15 min.
Radioligand binding experiments were performed in triplicate with 20-25 μg membrane protein in a total volume of 0.1 mL HE buffer supplemented with 1 U/mL adenosine deaminase and 5 mM MgCl2. The incubation time was 3 h at 21° C. Nonspecific binding was measured in the presence of 100 μM NECA. […] Membranes were filtered on Whatman GF/C filters using a Brandel cell harvester (Gaithersburg, Md.) and washed 3 times over 15-20 seconds with ice cold buffer (10 mM Tris, 1 mM MgCl2, pH 7.4). Bmax and KD values were calculated by Marquardt's nonlinear least squares interpolation for single a site binding models. Marquardt, D. M., J. Soc. Indust. Appl. […] Ki values for different compounds were derived from IC50 values as described. Linden, J., J. Cycl. Nucl. […] Data from replicate experiments are tabulated as means±SEM.
In general terms: In a radioligand displacement assay an active substance lowers the binding of a labelled ligand.
As usually defined, the Ki is the equilibrium dissociation constant of an inhibitor or competing ligand from its target. Take “1,3-diallyl-8-[6-(N-(6-chloronicotinoyl)methylamino)-3-pyridyl]xanthine [Compound 120]”: the Ki is below 100 nM. In the case of `CCN(C(=O)c1cccnc1)c1ccc(-c2nc3c([nH]2)c(=O)n(CC2CC2)c(=O)n3CC2CC2)cn1` [Compound 70, 1,3-Dicylopropylmethyl-8-[6-[N-nicotinoylethylamino]-3-pyridyl)xanthine] it was below 500 nM; in that of `CCCn1c(=O)c2[nH]c(-c3ccc(Cl)nc3)nc2n(CCC)c1=O` [Compound 1, 1,3-Dipropyl-8-(6-chloro-3-pyridyl)xanthine], below 500 nM. The figure for `CCCn1c(=O)c2[nH]c(-c3ccc(N4CCCNCC4)nc3)nc2n(CCC)c1=O` [Compound 58, 1,3-Dipropyl-8-[6-(hexahydro-1,4-diazaepin-1-yl)-3-pyridyl]xanthine] is below 100 nM. Consider `CCCn1c(=O)c2[nH]c(-c3ccc(NC)nc3)nc2n(CCC)c1=O` [Compound 10, 1,3-Dipropyl-8-(6-methylamino-3-pyridyl)xanthine], for which the Ki was below 500 nM. For “1,3-Dipropyl-8-[6-[N-isonicotinoylmethylamino]-3-pyridyl)xanthine [Compound 49]”, the Ki is below 100 nM. The figure for `C#CCn1c(=O)c2[nH]c(-c3ccc(N(CCOC)C(=O)c4cccnc4)nc3)nc2n(C)c1=O` [Compound 100, 1-Propargyl, 3-methyl-8-[6-[N-nicotinoyl, N-(2-methoxyethyl)amino]-3-pyridyl)xanthine] is below 5000 nM; for `CCn1c(=O)c2[nH]c(-c3ccc(NCc4ccccn4)nc3)nc2n(CC)c1=O` [Compound 73, 1,3-Diethyl-8-[6-(2-pyridylmethylamino)-3-pyridyl]xanthine] it is below 100 nM. On to `CCCn1c(=O)c2[nH]c(-c3ccc(N4CCCN(C)CC4)nc3)nc2n(CCC)c1=O` [Compound 9, 1,3-Dipropyl-8-{6-[4-methyl(perhydro-1,4-diazaepin-1-yl)]-3pyridyl}xanthine], for which the Ki is below 100 nM. For the compound `CCCn1c(=O)c2[nH]c(-c3ccc(N(C)C(=O)c4ccc(C(F)(F)F)nc4)nc3)nc2n(CCC)c1=O` [Compound 121, 1,3-dipropyll-8-[6-(N-[6-(trifluoromethyl)nicotinoyl]methylamino)-3-pyridyl]xanthine], the Ki was below 100 nM. On to `CCCn1c(=O)c2[nH]c(-c3ccc(NCC(C)O)nc3)nc2n(CCC)c1=O` (centres unmarked) [Compound 13, 1,3-Dipropyl-8-[6-(2-hydroxypropyl)amino-3-pyridyl]xanthine], for which the inhibition constant Ki is below 500 nM. In the case of “1-Cyclopropyl-3-propyl-8-[6-[N-nicotinoylmethylamino]-3-pyridyl)xanthine [Compound 129]” it was below 100 nM; in that of `CCCn1c(=O)c2[nH]c(-c3ccc(NCCO)nc3)nc2n(CCC)c1=O` [Compound 4, 1,3-Dipropyl-8-(6-(2-hydroxyethyl)amino-3-pyridyl)xanthine], below 500 nM. Take `CCCn1c(=O)c2[nH]c(-c3ccc(NC(C)CO)nc3)nc2n(CCC)c1=O` (centres unmarked) [Compound 15, 1,3-Dipropyl-8-[6-(1-hydroxy-2-propyl)amino-3-pyridyl]xanthine]: the inhibition constant Ki was below 100 nM. The figure for `CCn1c(=O)c2[nH]c(-c3ccc(NCc4cccc(OC)c4)nc3)nc2n(CC)c1=O` [Compound 75, 1,3-Diethyl-8-[6-(3-methoxybenzylamino)-3-pyridyl]xanthine] is below 100 nM; for “1,3-Diethyl-8-[6-(N-(6-chloronicotinoyl)methylamino)-3-pyridyl]xanthine [Compound 130]” it is below 100 nM. The figure for `CCn1c(=O)c2[nH]c(-c3ccc(NCc4cccnc4)nc3)nc2n(CC)c1=O` [Compound 74, 1,3-Diethyl-8-[6-(3-pyridylmethylamino)-3-pyridyl]xanthine] is below 100 nM; for “1-Cyclopropylmethyl-3-ethyl-8-[6-[N-(6-chloronicotinoyl)methylamino]-3-pyridyl)xanthine [Compound 145]” it is below 100 nM; for `CN(C(=O)c1cccnc1)c1ccc(-c2nc3c([nH]2)c(=O)n(CC2CC2)c(=O)n3CC2CC2)cn1` [Compound 69, 1,3-Dicylopropylmethyl-8-[6-[N-nicotinoylmethylamino]-3-pyridyl)xanthine] it is below 500 nM. In the case of `CCCn1c(=O)c2[nH]c(-c3ccc(N4CCCC4)nc3)nc2n(CCC)c1=O` [Compound 8, 1,3-Dipropyl-8-(6-pyrrolidinylpyrid-3-yl)xanthine] it was below 500 nM; in that of `CCCn1c(=O)c2[nH]c(-c3ccc(NCCOCCO)nc3)nc2n(CCC)c1=O` [Compound 18, 1,3-Dipropyl-8-[[6-(2-hydroxyethoxy)ethylamino]-3-pyridy]xanthine], below 500 nM. As for `CNc1ccc(-c2nc3c([nH]2)c(=O)n(C)c(=O)n3C)cn1` [Compound 97, 1,3-Dimethyl-8-(6-methylamino-3-pyridyl)xanthine], the inhibition constant Ki was below 500 nM. Turning to “1,3-Diethyl-8-[6-[N-nicotinoylethylamino]-3-pyridyl)xanthine [Compound 62]”, the inhibitory constant (Ki) is below 500 nM. In the case of “1,3-Diethyl-8-[6-[N-(isoxazole-5-carbonyl)methylamino]-3-pyridyl)xanthine [Compound 108]” it was below 500 nM. The figure for `CCn1c(=O)c2[nH]c(-c3ccc(N(CC4CC4)C(=O)c4cccnc4)nc3)nc2n(CC)c1=O` [Compound 144, 1,3-Diethyl-8-[6-[N-nicotinoylcyclopropylmethylamino]-3-pyridyl)xanthine] is below 500 nM. The figure for `CCn1c(=O)c2[nH]c(-c3ccc(N(CCOC)C(=O)Nc4ccncc4)nc3)nc2n(CC)c1=O` [Compound 95] is below 500 nM; for `CCCn1c(=O)c2[nH]c(-c3ccc(NC4CC4)nc3)nc2n(CCC)c1=O` [Compound 23, 1,3-Dipropyl-8-(6-cyclopropylamino-3-pyridyl]xanthine] it is below 500 nM. As to `CCCn1c(=O)c2[nH]c(-c3ccc(N4CCOCC4)nc3)nc2n(CCC)c1=O` [Compound 16, 1,3-Dipropyl-8-(6-morpholino-3-pyridyl)xanthine], the Ki was below 100 nM.

For “1,3-Dipropyl-8-[6-[N-(isoxazole-5-carbonyl)methylamino]-3-pyridyl)xanthine [Compound 110]”, the inhibitory constant (Ki) was below 500 nM. In the case of “1,3-Diethyl-8-[6-[(N-phenylcarbamoyl)methylamino]-3-pyridyl)xanthine [Compound 61]” it was below 5000 nM; in that of `CCCn1c(=O)c2[nH]c(-c3ccc(N4CCN(C(C)=O)CC4)nc3)nc2n(CCC)c1=O` [Compound 5, 1,3-Dipropyl-8-[6-(4-acetylpiperazinyl)-3-pyridyl]xanthine], below 500 nM; in that of `CCCn1c(=O)c2[nH]c(-c3ccc(NCC(OC)OC)nc3)nc2n(CCC)c1=O` [Compound 14, 1,3-Dipropyl-8-[6-(2,2-dimethoxyethyl)amino-3-pyridyl]xanthine], below 500 nM. Regarding `CCCn1c(=O)c2[nH]c(-c3ccc(N4CCNCC4)nc3)nc2n(CCC)c1=O` [Compound 19, 1,3-Dipropyl-8-(6-piperazino-3-pyridyl)xanthine], the inhibitory constant (Ki) is below 500 nM. The figure for `CCCn1c(=O)c2[nH]c(-c3ccc(NC4CCCC4)nc3)nc2n(CCC)c1=O` [Compound 39, 1,3-Dipropyl-8-[6-(cyclopentylamino)-3-pyridyl]xanthine] is below 5000 nM; for `CCCn1c(=O)c2[nH]c(-c3ccc(NCC)nc3)nc2n(CCC)c1=O` [Compound 3, 1,3-Dipropyl-8-(6-ethylamino-3-pyridyl)xanthine] it is below 500 nM.
